How the values were obtained:
Format in all cases: in vivo
[1] = test system: Panonychus ulmi (OP- and carb.- resistant); test: Activity against Panonychus ulmi (OP- and carb.- resistant); settings: 336 h, 400 ppm spray on apple seedlings, evaluated after 14 days, read-out: percentage reduction in population (% activity)
Description: Apple seedlings are populated with adult females of Panonychus ulmi. After seven days, the infested plants are sprayed to drip point with an aqueous emulsion comprising 400 ppm of the test compound and grown in the greenhouse. The test is evaluated after 14 days. The percentage reduction in population (% activity) is determined by comparing the number of dead spider mites on the treated plants with those on the untreated plants. […] An activity of over 80% is shown, in particular, by compound Nos. 1.01, 2.01, 2.07, 2.08, 2.10, 2.12 to 2.16, 2.22, 2.23, 2.26, 3.01, 4.01, 4.02, 4.06, 5.01 to 5.03, 5.05, 5.06, 5.08, 5.10, 5.11, 5.15, 5.16 and 5.20 to 5.25.

Nephotettix cincticeps = test: Activity against Nephotettix cincticeps (spray on rice plants); settings: 504 h, 400 ppm spray on rice plants, larvae in stages 2 and 3, evaluated 21 days later, read-out: percentage reduction in population (% activity)
Description: Rice plants are treated with a spray mixture prepared with an aqueous emulsion and comprising 400 ppm of the active ingredient. After the spray coating has dried on, the rice plants are populated with leaf hopper larvae in stages 2 and 3. The test is evaluated 21 days later. The percentage reduction in population (% activity) is determined by comparing the number of surviving leaf hoppers on the treated plants with those on the untreated plants.

Aphis craccivora = test: Activity against Aphis craccivora; settings: 400 ppm spray on pea seedlings, 20° C., evaluated after 3 and 6 days, read-out: percentage reduction in population (% activity)
Description: Pea seedlings are infected with Aphis craccivora, subsequently sprayed with a spray mixture comprising 400 ppm of the active ingredient, and incubated at 20° C. The test is evaluated after 3 and 6 days. The percentage reduction in population (% activity) is determined by comparing the number of dead aphids on the treated plants with those on the untreated plants.

adult Anthonomus grandis = test: Activity against adult Anthonomus grandis; settings: 72 h, 400 ppm spray on young cotton plants, adults, evaluated after 3 days, read-out: percentage reduction in population or in feeding damage (% activity)
Description: Young cotton plants are sprayed with a spray mixture prepared with an aqueous emulsion and comprising 400 ppm of the active ingredient. After the spray coating has dried on, the cotton plants are populated with 10 adult Anthonomus grandis and placed into a plastic container. The test is evaluated after 3 days. The percentage reduction in population, or the percentage reduction in feeding damage (% activity), is determined by comparing the number of dead beetles and the feeding damage on the treated plants with those on the untreated plants.

[2] = test system: Crocidolomia binotalis caterpillars; test: Activity against Crocidolomia binotalis caterpillars; settings: Brassica oleracea, 72 h; 400 ppm spray on young cabbage plants, third larval stage, evaluated after 3 days; read-out: percentage reduction in population or in feeding damage (% activity)
Description: Young cabbage plants are sprayed with a spray mixture prepared with an aqueous emulsion and comprising 400 ppm of the active ingredient. After the spray coating has dried on, the cabbage plants are infested with 10 Crocidolomia binotalis in the third larval stage and placed into a plastic container. The test is evaluated after 3 days. The percentage reduction in population, or the percentage reduction in feeding damage (% activity), is determined by comparing the number of dead caterpillars and the feeding damage on the treated plants with those on the untreated plants.

Measured: activity at 400 ppm

O=C(CCCCCCCCCC=C(F)F)OCCOc1ccc(OCc2ccccc2)cc1 [Compound 5.05]
> 80%: [1] | Nephotettix cincticeps | Aphis craccivora | adult Anthonomus grandis | [2]

Reference: patent publication US5481013A, “Carboxylic acid derivatives” (Ciba-Geigy Corporation, priority 1992, dated 1996)
